According to patent US20220380329A1, “A HYPERBRANCHED POLYGLYCEROL POLYGLYCIDYL ETHER AND ITS USE AS CROSSLINKER FOR POLYSACCHARIDES” (BIOPOLIMERI S.R.L., priority 2019, published 2022):

System: 3T3 mouse fibroblasts
Experiment: MTT viability assay, cells grown in direct contact with the crosslinker
Format: cell-based
Conditions: direct contact with cross-linker solutions of same epoxy equivalents, without polysaccharide; control culture medium in NaCl 0.9%
Experimental: MTT assay was used to evaluate the viability of 3T3 mouse fibroblasts grown.
c) MTT assay on cells grown in direct contact with the crosslinker
The MTT assay was performed on cells grown in direct contact with a solution containing cross-linker solutions. The solution contains the same epoxy equivalents, following the same steps of the manufacturing process of hydrogels—such as chemical reaction, washing and sterilization, but without the addition of the polysaccharide.

`C(CCOCC1CO1)COCC1CO1` (stereo not shown) [BDDE, 1,4-butane diol diglycidyl ether] was tested, and the “cell viability (MTT)” value was “significant decrease of cells viability and signs of suffering”.
